US8765741B2, “5,6-dihydro-1H-pyridin-2-one compounds” (Anadys Pharmaceuticals, Inc., priority 2007, dated 2014)

Target: NS5B polymerase (Hepatitis C virus genotype 1b, UniProt P26663)
Assay: biochemical
Conditions: not given
Protocol: Compounds were tested for HCV polymerase inhibition. Assays were performed in a 96-well streptavidin-coated FlashPlate using 20 nM enzyme, 0.5 μCi of [α-^33P]GTP, 0.6 μM GTP, and 250 nM 5′biotinylated oligo (rG13)/poly rC in 20 mM Tris-HCl, pH 7.5, 5 mM MgCl2, 5 mM dithiothreitol, 0.1 g/L bovine serum albumin, and 100 U/mL RNAse inhibitor. The reaction was stopped by aspiration after 75 min at 28° C. and the plate was washed several times. After washing and drying the plate, incorporated radioactivity was counted using a Microbeta scintillation counter. IC50 values were calculated relative to the uninhibited control and inhibition data were fitted to a 4-parameter IC50 equation.

Sequence of NS5B polymerase (P26663 2420-3010): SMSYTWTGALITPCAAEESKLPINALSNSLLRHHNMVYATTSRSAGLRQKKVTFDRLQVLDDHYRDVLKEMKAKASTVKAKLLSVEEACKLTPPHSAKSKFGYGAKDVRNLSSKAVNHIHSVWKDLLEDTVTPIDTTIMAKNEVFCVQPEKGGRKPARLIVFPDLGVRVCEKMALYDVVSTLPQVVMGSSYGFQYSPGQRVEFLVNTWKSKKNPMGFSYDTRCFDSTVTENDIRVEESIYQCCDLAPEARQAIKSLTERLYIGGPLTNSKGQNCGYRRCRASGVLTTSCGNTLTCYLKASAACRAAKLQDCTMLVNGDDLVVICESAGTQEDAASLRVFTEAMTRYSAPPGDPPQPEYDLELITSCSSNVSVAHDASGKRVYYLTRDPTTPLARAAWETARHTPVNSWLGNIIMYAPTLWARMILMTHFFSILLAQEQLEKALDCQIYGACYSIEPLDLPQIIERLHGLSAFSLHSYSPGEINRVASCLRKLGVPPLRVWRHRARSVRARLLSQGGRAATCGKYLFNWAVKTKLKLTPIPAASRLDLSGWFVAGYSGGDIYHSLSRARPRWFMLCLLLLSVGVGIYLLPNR

SMILES | IC50 [nM]
CS(=O)(=O)Nc1ccc2c(c1)S(=O)(=O)N=C(C1=C(O)[C@@H]3[C@@H]4CC[C@@H](C4)[C@@H]3N(Cc3ccc(F)cc3)C1=O)N2 [Example 4, N-{3-[(1S,2S,7R,8R)-3-(4-Fluoro-benzyl)-6-hydroxy-4-oxo-3-aza-tricyclo[6.2.1.0^2,7]undec-5-en-5-yl]-1,1-dioxo-1,4-dihydro-1λ^6-benzo[1,2,4]thiadiazin-7-yl}-methanesulfonamide] | < 20
CS(=O)(=O)Nc1ccc2c(c1)S(=O)(=O)N=C(C1=C(O)[C@H]3[C@H]4CC[C@H](C4)[C@H]3N(Cc3ccc(F)cc3)C1=O)N2 [Example 5, N-{3-[(1R,2R,7S,8S)-3-(4-Fluoro-benzyl)-6-hydroxy-4-oxo-3-aza-tricyclo[6.2.1.0^2,7]undec-5-en-5-yl]-1,1-dioxo-1,4-dihydro-1λ^6-benzo[1,2,4]thiadiazin-7-yl}-methanesulfonamide] | 100 to 1000
CS(=O)(=O)Nc1ccc2c(c1)S(=O)(=O)N=C(C1=C(O)[C@@H]3[C@H]4CC[C@H](C4)[C@@H]3N(Cc3ccc(F)cc3)C1=O)N2 [Example 6, N-{3-[(1R,2S,7R,8S)-3-(4-Fluoro-benzyl)-6-hydroxy-4-oxo-3-aza-tricyclo[6.2.1.0^2,7]undec-5-en-5-yl]-1,1-dioxo-1,4-dihydro-1λ^6-benzo[1,2,4]thiadiazin-7-yl}-methanesulfonamide] | < 20
CS(=O)(=O)Nc1ccc2c(c1)S(=O)(=O)N=C(C1=C(O)[C@H]3[C@@H]4CC[C@@H](C4)[C@H]3N(Cc3ccc(F)cc3)C1=O)N2 [Example 7, N-{3-[(1S,2R,7S,8R)-3-(4-Fluoro-benzyl)-6-hydroxy-4-oxo-3-aza-tricyclo[6.2.1.0^2,7]undec-5-en-5-yl]-1,1-dioxo-1,4-dihydro-1λ^6-benzo[1,2,4]thiadiazin-7-yl}-methanesulfonamide] | 100 to 1000

Same assay, conditions: NS5B polymerase inhibition; 20 nM enzyme, 75 min at 28° C.; read-out: IC50

SMILES | IC50 [nM]
CS(=O)(=O)Nc1ccc2c(c1)S(=O)(=O)N=C(C1=C(O)C3C4CCC(O4)C3N(C3CCCC3)C1=O)N2 (racemic) [Example 48, (rac-di-exo)-N-[3-(3-Cyclopentyl-6-hydroxy-4-oxo-11-oxa-3-aza-tricyclo[6.2.1.0^2,7]undec-5-en-5-yl)-1,1-dioxo-1,4-dihydro-1λ^6-benzo[1,2,4]thiadiazin-7-yl]-methanesulfonamide] | 20 to 100
CS(=O)(=O)Nc1ccc2c(c1)S(=O)(=O)N=C(C1=C(O)[C@H]3[C@H]4CC[C@H]([C@@H]5C[C@@H]54)[C@H]3N(Cc3ccc(F)cc3)C1=O)N2 (racemic) [Example 51, rac-N-{3-[(1R,2R,7S,8S,9S,11R)-3-[(4-Fluorophenyl)methyl]-6-hydroxy-4-oxo-3-azatetracyclo[6.3.2.0^2,7.0^9,11]tridec-5-en-5-yl]-1,1-dioxo-4H-1λ^6,2,4-benzothiadiazin-7-yl}methanesulfonamide] | 20 to 100
CS(=O)(=O)Nc1ccc2c(c1)S(=O)(=O)N=C(C1=C(O)C3C4CCC(C5CC54)C3N(Cc3ccc(F)cc3)C1=O)N2 (racemic) [Example 52] | 20 to 100
CC(C)CCN1C(=O)C(C2=NS(=O)(=O)c3cc(N(C)S(C)(=O)=O)ccc3N2)=C(O)C2C3CCC(O3)C21 (racemic) [Example 59, (rac-di-exo)-N-{3-[6-Hydroxy-3-(3-methyl-butyl)-4-oxo-11-oxa-3-aza-tricyclo[6.2.1.0^2,7]undec-5-en-5-yl]-1,1-dioxo-1,4-dihydro-1λ^6-benzo[1,2,4]thiadiazin-7-yl}-N-methyl-methanesulfonamide] | 100 to 1000
CS(=O)(=O)Nc1ccc2c(c1)S(=O)(=O)N=C(C1=C(O)C3C(C4CC(O)[C@H]3C4)N(Cc3ccc(F)cc3)C1=O)N2 (stereo in doubt) [Example 67, N-{3-[(1R,2S,7R,8S)-3-(4-Fluoro-benzyl)-6,9-dihydroxy-4-oxo-3-aza-tricyclo[6.2.1.0^2,7]undec-5-en-5-yl]-1,1-dioxo-1,4-dihydro-1λ^6-benzo[1,2,4]thiadiazin-7-yl}-methanesulfonamide] | < 20
